Data taken from patent US20180319865A1, “Identification of Novel Small Molecule Beta2 Integrin Agonists” (Rush University Medical Center, priority 2016, published 2018).
Read-outs that look alike come from different tables or passages of the source.

Columns and labels:
[1] = biological target: T1, integrin CD11c/CD18 (Homo sapiens, UniProt P20702); test: HTS cell adhesion assay, K562 CD11c/CD18 cells on immobilized fibrinogen; type: cell-based; details: for EC50 CD11c/CD18: Table 3
T1 construct: expressed in transfected cells; host or cells: K562 (ATCC)
T1 sequence (P20702 with tags, fused parts or gaps): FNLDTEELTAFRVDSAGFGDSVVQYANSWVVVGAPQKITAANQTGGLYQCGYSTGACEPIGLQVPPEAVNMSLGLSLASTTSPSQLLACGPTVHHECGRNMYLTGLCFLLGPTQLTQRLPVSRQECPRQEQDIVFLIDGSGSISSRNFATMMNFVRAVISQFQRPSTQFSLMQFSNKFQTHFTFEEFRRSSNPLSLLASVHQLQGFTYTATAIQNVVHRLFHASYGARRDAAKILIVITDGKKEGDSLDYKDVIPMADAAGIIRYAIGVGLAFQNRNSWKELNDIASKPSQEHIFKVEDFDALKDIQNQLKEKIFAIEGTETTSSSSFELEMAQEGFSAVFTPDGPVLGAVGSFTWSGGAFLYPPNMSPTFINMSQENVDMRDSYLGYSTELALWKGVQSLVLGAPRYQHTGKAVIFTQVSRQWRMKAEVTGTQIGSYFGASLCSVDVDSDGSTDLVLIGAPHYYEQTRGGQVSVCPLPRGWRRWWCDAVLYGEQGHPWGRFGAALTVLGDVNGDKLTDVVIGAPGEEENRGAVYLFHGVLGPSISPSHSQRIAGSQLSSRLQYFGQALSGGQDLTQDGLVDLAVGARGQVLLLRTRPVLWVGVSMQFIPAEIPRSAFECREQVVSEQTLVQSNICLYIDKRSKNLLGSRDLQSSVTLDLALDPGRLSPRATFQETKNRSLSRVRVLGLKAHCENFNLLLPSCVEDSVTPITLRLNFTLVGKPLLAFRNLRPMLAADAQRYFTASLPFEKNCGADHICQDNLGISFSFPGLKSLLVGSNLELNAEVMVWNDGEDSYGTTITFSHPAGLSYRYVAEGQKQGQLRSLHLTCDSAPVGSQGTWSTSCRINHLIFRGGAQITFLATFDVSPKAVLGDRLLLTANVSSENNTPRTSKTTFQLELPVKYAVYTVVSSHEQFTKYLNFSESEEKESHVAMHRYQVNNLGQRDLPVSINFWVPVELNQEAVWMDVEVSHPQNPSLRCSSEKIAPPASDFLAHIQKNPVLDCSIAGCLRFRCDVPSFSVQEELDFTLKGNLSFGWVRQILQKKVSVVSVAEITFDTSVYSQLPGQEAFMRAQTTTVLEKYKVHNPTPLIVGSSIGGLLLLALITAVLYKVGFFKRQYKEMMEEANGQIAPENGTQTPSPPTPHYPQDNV
T1 sequence (P05107 23-769 partner): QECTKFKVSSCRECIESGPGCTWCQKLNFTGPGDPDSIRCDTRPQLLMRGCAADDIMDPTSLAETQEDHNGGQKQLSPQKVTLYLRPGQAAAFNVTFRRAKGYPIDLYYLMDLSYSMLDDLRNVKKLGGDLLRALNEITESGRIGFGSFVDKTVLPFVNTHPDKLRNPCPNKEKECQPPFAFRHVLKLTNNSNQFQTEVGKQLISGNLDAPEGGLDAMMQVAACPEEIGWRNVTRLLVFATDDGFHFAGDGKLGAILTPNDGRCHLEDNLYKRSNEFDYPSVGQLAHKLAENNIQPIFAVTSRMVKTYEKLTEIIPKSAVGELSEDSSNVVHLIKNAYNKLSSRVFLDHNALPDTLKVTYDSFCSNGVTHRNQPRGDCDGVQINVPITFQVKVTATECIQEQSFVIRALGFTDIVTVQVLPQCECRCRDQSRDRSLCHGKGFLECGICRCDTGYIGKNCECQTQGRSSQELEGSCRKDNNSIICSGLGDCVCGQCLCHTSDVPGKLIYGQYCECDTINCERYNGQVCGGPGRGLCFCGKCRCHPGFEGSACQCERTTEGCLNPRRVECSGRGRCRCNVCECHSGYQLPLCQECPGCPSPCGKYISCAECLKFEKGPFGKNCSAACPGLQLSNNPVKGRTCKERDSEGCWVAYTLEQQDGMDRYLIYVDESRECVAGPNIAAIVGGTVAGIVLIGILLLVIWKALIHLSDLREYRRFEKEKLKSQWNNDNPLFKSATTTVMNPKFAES
Method: (§1) K562 cells stably expressing CD11c/CD18 (K562 CD11c/CD18) were generated similarly. Mutant CD11bE320A has been described previously. K562 cells stably transfected with mutant integrin CD11bE320A/CD18 (K562 E320A) were generated according to literature protocols. All cell lines were maintained in Iscove's Modified Dulbecco's Medium (IMDM) supplemented with 10% heat-inactivated fetal bovine serum, 50 IU/mL penicillin and streptomycin and 0.5 mg/mL G418.
(§2) Cell adhesion assays with immobilized ligands were performed using the general protocol previously described and as illustrated in FIG. 1 [33]. Assays with all different K562 cell lines (K562, K562 CD11b/CD18, K562 CD11c/CD18 and K562 E320A) were performed in an identical fashion. Briefly, 384-well microplates (Corning 3700) were coated with 15 μg/mL fibrinogen (Fg) ligand in PBS^++ overnight at 4° C. At the same time, anti-CD18 (IB4) mAb was also coated. Subsequently, the coated wells were washed with 1% nonfat milk in TBS at room temperature for 1 hour. Next, the wells were washed 3 times with TBS, and the coated microplates were used in the HTS assays.
(§3) K562 CD11b/CD18, K562 CD11bE320A/CD18 and K562 CD11c/CD18 cells were washed with TBS, and cells were transferred to the Fg-coated wells of microplates in the assay buffer (Ca^2+ and Mg^2+ for physiological condition, Mn^2+ as the Positive control). A 1 μL aliquot of the compounds were transferred to each washed well with multichannel pipet from the 384-well plates.
(§4) The assay plates were incubated at 37° C. in the presence of small-molecule compounds for 30 min. To dislodge the non-adherent cell, the assay plates were gently inverted and kept in inverted position for 20 min at room temperature.
(§5) The cells were fixed with 37% formaldehyde in a small volume and the plates were kept inverted for 1 h. Upon the fixation, the solutions in the well were discarded. Next, the cells were fluorescently labeled with DAPI (0.5 μM final in TBS with 0.1% Triton X-100) and the quantitated with “Opera High Content Screening System” (Perkin Elmer).
Cell-adhesion under positive and negative control conditions was used to define the activity scale; signal corresponding to the number of non-small molecule treated cells adherent in activating buffer condition (in the presence of Mn^2+ ions as agonist, PC) was considered maximum (100% binding) and the signal corresponding to the number of non-small molecule treated cells adherent in basal buffer condition (in the presence of 1 mM each of Ca^2+ and Mg^2+, NC) was considered minimum (0% binding). […]
The compounds were diluted in DMSO by the final concentration 10 μM, 5 μM, 2.5 μM, 1.25 μM and 0.625 μM and stocked as sealed in 384-well plates at −80° C.

[2] = biological target: T2, mutant integrin CD11bE320A/CD18 (Homo sapiens, UniProt P11215, E336A); test: HTS cell adhesion assay, K562 E320A cells on immobilized fibrinogen; type: cell-based; details: five point dose-response
T2 construct: expressed in transfected cells; host or cells: K562 (ATCC)
T2 sequence (P11215 17-1152 E336A): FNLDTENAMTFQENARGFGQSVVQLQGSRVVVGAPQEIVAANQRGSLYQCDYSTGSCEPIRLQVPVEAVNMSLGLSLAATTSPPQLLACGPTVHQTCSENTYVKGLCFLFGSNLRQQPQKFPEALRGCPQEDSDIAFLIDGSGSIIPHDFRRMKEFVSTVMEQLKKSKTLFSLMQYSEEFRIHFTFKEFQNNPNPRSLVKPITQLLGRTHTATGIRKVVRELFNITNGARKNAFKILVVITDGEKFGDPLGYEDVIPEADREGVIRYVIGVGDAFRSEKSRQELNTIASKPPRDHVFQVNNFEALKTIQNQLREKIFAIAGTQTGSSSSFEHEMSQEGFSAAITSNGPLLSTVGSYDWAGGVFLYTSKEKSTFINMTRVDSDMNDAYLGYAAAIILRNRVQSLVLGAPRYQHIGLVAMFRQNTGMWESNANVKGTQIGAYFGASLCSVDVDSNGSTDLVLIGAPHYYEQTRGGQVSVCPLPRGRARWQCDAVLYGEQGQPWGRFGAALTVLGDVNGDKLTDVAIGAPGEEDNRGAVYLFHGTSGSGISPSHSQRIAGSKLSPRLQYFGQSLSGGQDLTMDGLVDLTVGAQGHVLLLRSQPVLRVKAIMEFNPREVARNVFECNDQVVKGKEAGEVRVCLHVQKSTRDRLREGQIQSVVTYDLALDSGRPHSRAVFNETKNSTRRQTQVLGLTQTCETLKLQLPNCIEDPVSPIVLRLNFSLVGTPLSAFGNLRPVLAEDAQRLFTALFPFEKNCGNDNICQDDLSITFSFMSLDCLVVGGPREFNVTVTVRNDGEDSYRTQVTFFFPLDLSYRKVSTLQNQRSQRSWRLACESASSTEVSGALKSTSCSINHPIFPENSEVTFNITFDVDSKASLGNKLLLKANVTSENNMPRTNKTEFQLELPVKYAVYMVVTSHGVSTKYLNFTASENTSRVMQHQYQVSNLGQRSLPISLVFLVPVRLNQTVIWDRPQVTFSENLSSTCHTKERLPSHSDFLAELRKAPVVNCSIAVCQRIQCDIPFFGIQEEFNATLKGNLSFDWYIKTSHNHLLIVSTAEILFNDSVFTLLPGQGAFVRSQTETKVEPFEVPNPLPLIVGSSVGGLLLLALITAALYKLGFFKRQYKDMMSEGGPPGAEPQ
T2 sequence (P05107 23-769 partner): as the sequence (P05107 23-769 partner) above
Method: as §1, with “Mutant CD11bE320A has been described previously.” left out
as §2, §3, §4, §5
Cell-adhesion under positive and negative control conditions was used to define the activity scale; signal corresponding to the number of non-small molecule treated cells adherent in activating buffer condition (in the presence of Mn^2+ ions as agonist, PC) was considered maximum (100% binding) and the signal corresponding to the number of non-small molecule treated cells adherent in basal buffer condition (in the presence of 1 mM each of Ca^2+ and Mg^2+, NC) was considered minimum (0% binding).

[3] = Table 3, adhesion to fibrinogen
[4] = K562 CD11c/CD18 cells, adhesion to fibrinogen, dose-response
[5] = Table 4, adhesion to fibrinogen

Row | SMILES | EC50 [1] [µM] | EC50 [2, 3] [µM] | EC50 CD11c/CD18 [1, 4] | EC50 [2, 5] [µM] | EC50 ([1]; Table 4, K562 CD11c/CD18 cells, adhesion to fibrinogen, dose-response, read-out: EC50 CD11c/CD18) [µM]
1 | N#Cc1sc2nc(-c3ccccc3)cc(-c3ccco3)c2c1N [Compound 629074] | 2.36 | 5.16 |  |  | 
2 | CCC(=O)Nc1c(C#N)c2nc3ccccc3nc2n1C1CCCCC1 [Compound 658936] |  | 0.209 | 1.669 (Reverse) |  | 
3 | COC(=O)c1[nH]c2ccc(C)cc2c1NC(=O)CN1CCCc2ccccc21 [Compound 658948] | 0.564 | 0.994 |  |  | 
4 | CC(C)c1nc2sc3c(SCC(=O)NCc4ccco4)ncnc3c2c2c1CCC2 [Compound 664182] | 3.78 | 4.24 |  |  | 
5 | CSc1nc(N(CCO)CCO)c2sc3nc(-c4ccco4)c4c(c3c2n1)CCC4 [Compound 665142] | 2.63 | 4.92 |  |  | 
6 | CCc1cc(=O)oc2cc(C)c3c(C)coc3c12 [Compound 707842] |  | 15 | Infinite |  | 
7 | Cc1cc(C)cc(OCC(=O)Nc2ccc(N3CCCC3)cc2)c1 [Compound 960705] | 2.28 | 3.49 |  |  | 
8 | Cc1ccc2sc(-c3ccc(NC(=O)c4cc(-n5cnnc5)ccc4Cl)cc3)nc2c1 [Compound 1017701] | 2.72 | 8.11 |  |  | 
9 | O=C(Oc1ccc2c(=O)c(Oc3ccc4ccccc4c3)coc2c1)c1cncc(Br)c1 [Compound 1045434] |  | 9.84 | Infinite |  | 
10 | Cc1ccc(-n2nnnc2SCC(=O)Nc2ccc3c(c2)COC3=O)cc1C [Compound 1227337] | 3.32 | 4.19 |  |  | 
11 | Cc1cc(OCC(=O)Nc2ccc(N3CCN(C(=O)c4ccco4)CC3)cc2)cc(C)c1Cl [Compound 1255242] | 2.57 | 3.41 |  |  | 
12 | O=C(CCN1C(=O)c2ccccc2C1=O)Nc1ccc(-c2nc3ccccc3o2)cc1 [Compound 1262031] | 7.21 | 1.6 |  |  | 
13 | O=C(Nc1ccc2oc(-c3ccccc3F)nc2c1)c1cncc(Br)c1 [Compound 1295289] | 2.67 | 3.62 |  |  | 
14 | O=C(Nc1ccc(N2CCN(c3ccc(O)cc3)CC2)cc1)Oc1ccccc1 [Compound 1317528] | 2.14 | 3.62 |  |  | 
15 | Cc1ccc2nsnc2c1NC(=O)c1ccc(-c2cc(Cl)ccc2Cl)o1 [Compound 1334850] | 1.38 | 2.69 |  |  | 
16 | CCOC(=O)c1c(-n2c(C)cc(C=C3C(=O)NC(=S)NC3=O)c2C)sc2c1CCCC2 [Compound 1494229] |  | 6.53 |  | 6.53 | 6.72
17 | COc1ccc(/C=C2/SC(=O)N(CC(=O)Nc3cc(C)on3)C2=O)cc1OC [Compound 1554642] | 5.26 | 7.9 |  |  | 
18 | N=C1/C(=C\c2ccc(-c3cc(Cl)cc(Cl)c3)o2)C(=O)N=C2SC=C(c3ccccc3)N12 [Compound 1599902] | 2.23 | 5.71 |  |  | 
19 | Cc1ccc(/C=c2\sc3nc(-c4ccccc4Br)nn3c2=O)o1 [Compound 1891182] | 5.27 | 6.86 |  |  | 
20 | CS(=O)(=O)c1ccc2c(c1)SC1=NC(=O)/C(=C/c3ccco3)C(=N)N12 [Compound 1951731] | 4.21 | 3.65 |  |  | 
21 | Cc1cc(C)cc(-n2c(N)c(C(=O)Nc3c(C)n(C)n(-c4ccccc4)c3=O)c3nc4ccccc4nc32)c1 [Compound 1967927] | 2.49 | 2.67 |  |  | 
22 | N=C1/C(=C\c2ccc(-c3cccc(Cl)c3)o2)C(=O)N=C2SC=C(c3ccccc3)N12 [Compound 1984877] | 2.16 | 3.07 |  |  | 
23 | Cc1ccsc1/C=C/C1=Cc2c(sc(NC(=O)CSc3nnc(N)[nH]3)c2C#N)C(C)(C)C1 [Compound 2083967] | 2.7 | 3.33 |  |  | 
24 | CCOc1ccc(/C=c2\sc3nc(-c4ccco4)nn3c2=O)cc1OCC [Compound 2144321] | 5.07 | 6.49 |  |  | 
25 | COc1ccc2cc(/C=N/NC(=O)c3ccc(CN(c4ccc(C)c(C)c4)S(C)(=O)=O)cc3)c(Cl)nc2c1 [Compound 9564362] |  | 12.2 |  |  | 
26 | COc1cccc2cc(/C(C)=N/Nc3nc(-c4cc(C)ccc4C)cs3)c(=O)oc12 [Compound 9594695] |  | 17.5 |  |  | 
27 | O=[N+]([O-])c1ccc(-c2ccc(/C=N/c3c(-c4ccco4)nc4ccccn34)o2)c(Cl)c1 [Compound 9617832] |  | 11.7 |  |  | 
28 | Cc1cc(=O)oc2cc(OCC(=O)N/N=C/c3ccccc3[N+](=O)[O-])ccc12 [Compound 9619223] |  | 35.7 |  |  | 
29 | O=C(Cn1c2ccccc2c(=O)c2cc([N+](=O)[O-])ccc21)Nc1ccccc1Cl [Compound 15944880] |  | 10.1 |  |  | 
30 | CC(C)c1nnc(NC(=O)c2c(O)c3cccc4c3n(c2=O)CCC4)s1 [Compound 54680928] |  | 16.1 |  |  | 

More lines, main results first:

Row | EC50 [1] [µM] | EC50 [2, 3] [µM] | EC50 CD11c/CD18 [1, 4] | SMILES | EC50 [2, 5] [µM] | EC50 ([1]; Table 4, K562 CD11c/CD18 cells, adhesion to fibrinogen, dose-response, read-out: EC50 CD11c/CD18) [µM]
31 | 5.01 | 6 |  | CC1CCN(S(=O)(=O)c2ccc(NC(=O)Cn3nnc(-c4ccccc4)n3)cc2)CC1 [Compound 652267] |  | 
32 | 4.61 | 4.86 |  | COc1ccc(-c2nnn(CC(=O)Nc3sc4c(c3C#N)CCCC4)n2)cc1 [Compound 652695] |  | 
33 | 0.621 | 1.6 |  | COC(=O)c1[nH]c2ccccc2c1NC(=O)CN1CCCc2ccccc21 [Compound 658682] |  | 
34 | 2.45 |  |  | Cc1ccc(-c2nn3c(C)nnc3s2)cc1NC(=O)c1ccc(-c2cccc(Cl)c2)o1 [Compound 666410] | 6.22 | 
35 | 2.5 | 6.92 |  | COc1ccccc1NC(=O)c1sc2ncn(Cc3ccc(C)cc3)c(=O)c2c1C [Compound 1078286] |  | 
36 | 5.39 | 4.44 |  | Cc1ccc(-c2nc3ncccc3o2)cc1NC(=O)c1sc2ccccc2c1Cl [Compound 1132508] |  | 
37 | 3.06 | 7.06 |  | O=C(Nc1ccc(NC(=O)c2ccc(S(=O)(=O)c3ccccc3)cc2)cc1)c1ccccc1 [Compound 1144109] |  | 
38 | 2.77 | 4 |  | COc1ccc2nc(SCC(=O)Nc3ccc4sc(C)nc4c3)c(C#N)cc2c1 [Compound 1164441] |  | 
39 | 6.27 | 3.3 |  | COc1cc(/C=C2\SC(N)=NC2=O)ccc1OCC(=O)Nc1ccc(C)cc1 [Compound 1308620] |  | 
40 | 1.29 | 2.39 |  | CC(=O)Nc1ccc(-c2nnc(SCC(=O)n3c4c(c5ccccc53)CCCC4)n2C)cc1 [Compound 1310712] |  | 
41 | 2.64 | 2.46 |  | CC(=O)c1ccc(NC(=O)c2ccc3nc(-c4ccco4)c(-c4ccco4)nc3c2)cc1 [Compound 1331726] |  | 
42 | 2.27 | 4.02 |  | Cc1c(N2C(=O)c3ccc4c5c(ccc(c35)C2=O)CC4)c(=O)n(-c2ccccc2)n1C [Compound 1356461] |  | 
43 | 1.3 | 4.68 |  | Cc1ccc(-c2ccc(/C=C(\C#N)C(=O)Nc3cc(C)nn3-c3ccccc3)o2)cc1 [Compound 1554430] |  | 
44 | 5.53 | 5.46 |  | Cc1ccc(-n2c(N)c(C(=O)Nc3c(C)n(C)n(-c4ccccc4)c3=O)c3nc4ccccc4nc32)cc1 [Compound 1949560] |  | 
45 | 10.6 | 6.47 |  | O=C(Nc1nnc(-c2ccccc2SCc2ccccc2)s1)Nc1ccccc1F [Compound 1964957] |  | 
46 |  | 10.5 |  | COc1ccc(/C=N/NC(=O)C2c3ccccc3-c3ccccc32)cc1 [Compound 9557044] |  | 
47 |  | 13.4 |  | Cc1ccc(NC(=O)COc2ccc(/C=C3/SC(=Nc4ccccc4)N(Cc4cccnc4)C3=O)cc2)cc1 [Compound 11840403] |  | 
48 |  | 12.1 |  | CCOc1ccc(-c2nnc3ccc(SCC(=O)Nc4nc5ccc(C)cc5s4)nn23)cc1 [Compound 12005911] |  | 
49 |  | 9.85 |  | COc1ccc(C(=O)CSc2nnc(NC(=O)C3CC(=O)N(c4ccccc4)C3)s2)cc1 (centres unmarked) [Compound 12006105] |  | 
